According to paper PMC5295242, “Synthesis of Natural O-Linked Carba-Disaccharides, (+)- and (−)-Pericosine E, and Their Analogues as α-Glucosidase Inhibitors” (Marine Drugs, 2017):

Key:
[1] = target: β-glucosidase (sweet almond); test: β-glucosidase inhibition assay (p-nitrophenyl β-D-glucopyranoside substrate); assay type: biochemical; details: sweet almond enzyme; NI = no inhibition
Method: (§1) Eight samples synthesized here were used in a biological assay against three glycosidases, namely α-glucosidase (yeast), β-glucosidase (sweet almond), and α-mannosidase (Jack bean).
(§2) After incubation for 20 min at 37 °C, the reaction was interrupted by the addition of 0.5 M sodium carbonate (100 μL). The amount of p-nitrophenol liberated was measured colorimetrically at 400 nm (optical density at 400 nm: ODtest). […] Assays for β-glucosidase and α-mannosidase were carried out as outlined above using p-nitrophenyl β-D-glucopyranoside and α-D-mannopyranoside as the substrates.
(§3) Assays on β-glucosidase and α-mannnosidase inhibition of synthesized carbadisaccharides 6 and 21–23 were carried out in a similar fashion.

[2] = target: T1, α-mannosidase (Jack bean) (Canavalia ensiformis, UniProt C0HJB3); test: α-mannosidase inhibition assay (p-nitrophenyl α-D-mannopyranoside substrate); assay type: biochemical; details: Jack bean enzyme; NI = no inhibition
T1 construct: purchased Sigma-Aldrich Co. LLC. lot; 055K7047 (catalogue number not given)
T1 sequence (C0HJB3 1-981): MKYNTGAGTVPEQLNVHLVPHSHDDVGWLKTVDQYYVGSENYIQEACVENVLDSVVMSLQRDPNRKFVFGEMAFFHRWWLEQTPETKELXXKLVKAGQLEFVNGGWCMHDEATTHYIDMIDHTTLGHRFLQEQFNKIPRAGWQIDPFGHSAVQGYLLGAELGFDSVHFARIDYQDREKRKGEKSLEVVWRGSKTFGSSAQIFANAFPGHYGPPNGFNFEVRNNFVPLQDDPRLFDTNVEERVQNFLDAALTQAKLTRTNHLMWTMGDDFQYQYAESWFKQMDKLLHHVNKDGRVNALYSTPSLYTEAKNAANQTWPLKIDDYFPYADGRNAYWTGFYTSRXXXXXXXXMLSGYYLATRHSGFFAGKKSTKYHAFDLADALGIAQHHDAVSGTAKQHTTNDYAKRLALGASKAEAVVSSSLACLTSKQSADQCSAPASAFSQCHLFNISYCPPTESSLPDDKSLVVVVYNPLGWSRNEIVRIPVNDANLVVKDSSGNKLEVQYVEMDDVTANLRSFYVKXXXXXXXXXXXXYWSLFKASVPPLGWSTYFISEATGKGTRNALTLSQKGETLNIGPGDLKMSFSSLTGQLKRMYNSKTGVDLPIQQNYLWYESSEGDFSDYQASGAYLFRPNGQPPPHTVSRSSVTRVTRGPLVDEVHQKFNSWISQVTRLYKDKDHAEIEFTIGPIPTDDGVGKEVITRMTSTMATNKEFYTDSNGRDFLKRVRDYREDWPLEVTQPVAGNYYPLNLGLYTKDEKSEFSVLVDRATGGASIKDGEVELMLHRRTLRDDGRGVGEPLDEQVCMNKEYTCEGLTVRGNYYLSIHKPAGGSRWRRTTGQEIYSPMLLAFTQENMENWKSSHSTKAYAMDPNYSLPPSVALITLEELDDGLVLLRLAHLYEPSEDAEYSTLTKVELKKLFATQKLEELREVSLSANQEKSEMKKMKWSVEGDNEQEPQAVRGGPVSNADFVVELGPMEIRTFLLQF
Method: as §1, §2, §3

[3] = target: α-glucosidase (yeast) (Saccharomyces cerevisiae, UniProt P53341); test: α-glucosidase inhibition assay (p-nitrophenyl α-D-glucopyranoside substrate); assay type: biochemical; details: yeast enzyme; relative to positive control DNJ
Sequence of α-glucosidase (yeast) (P53341 whole entry): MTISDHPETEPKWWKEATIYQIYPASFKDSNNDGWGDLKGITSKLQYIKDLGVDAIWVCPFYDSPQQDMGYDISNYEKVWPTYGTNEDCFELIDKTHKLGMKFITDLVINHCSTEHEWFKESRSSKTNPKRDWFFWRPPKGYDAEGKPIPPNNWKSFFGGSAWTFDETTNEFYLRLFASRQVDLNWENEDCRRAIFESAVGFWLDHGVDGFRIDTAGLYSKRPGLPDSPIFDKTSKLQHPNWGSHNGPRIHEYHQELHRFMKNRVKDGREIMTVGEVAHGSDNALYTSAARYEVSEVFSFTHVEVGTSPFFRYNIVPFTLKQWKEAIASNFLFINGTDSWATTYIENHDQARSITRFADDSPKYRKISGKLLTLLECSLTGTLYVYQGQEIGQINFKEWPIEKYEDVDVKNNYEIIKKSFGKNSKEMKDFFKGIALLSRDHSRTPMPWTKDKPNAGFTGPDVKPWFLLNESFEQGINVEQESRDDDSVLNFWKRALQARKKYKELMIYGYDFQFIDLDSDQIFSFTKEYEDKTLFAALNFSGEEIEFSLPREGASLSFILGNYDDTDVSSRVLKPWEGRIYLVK
Method: as §1, §2

[4] = tested on: melanoma cell line UACC-62; design: method as in PMID 24285637, PMID 26928999; details: cited from earlier work

SMILES | IC50 [1] [mM] | IC50 [2] [mM] | α-glucosidase inhibitory potency relative to deoxynojirimycin (DNJ), fold/times [3] | inhibition against melanoma cell line UACC-62 [4]
COC(=O)C1=C[C@H](O)[C@H](O)[C@H](O[C@H]2C(C(=O)OC)=C[C@@H](O)[C@@H](O)[C@@H]2O)[C@H]1Cl [(+)-21] | > 10 | > 10 | – | –
COC(=O)C1=C[C@H](O)[C@H](O)[C@H](O)[C@@H]1O[C@H]1[C@@H](O)[C@@H](O)C=C(C(=O)OC)[C@@H]1Cl [(+)-22] | > 10 | > 10 | – | –
COC(=O)C1=C[C@H](O)[C@H](O)[C@@H](O)[C@@H]1O[C@H]1[C@@H](O)[C@@H](O)C=C(C(=O)OC)[C@@H]1Cl [(+)-23] | > 10 | > 10 | – | –
COC(=O)C1=C[C@H](O)[C@H](O)[C@H](O[C@H]2C(C(=O)OC)=C[C@@H](O)[C@@H](O)[C@H]2O)[C@H]1Cl [(+)-pericosine E (6)] | > 10 | > 10 | – | –
COC(=O)C1=C[C@@H](O)[C@@H](O)[C@@H](O[C@@H]2C(C(=O)OC)=C[C@H](O)[C@H](O)[C@H]2O)[C@@H]1Cl [(−)-21] | > 10 | > 10 | one-third | –
COC(=O)C1=C[C@@H](O)[C@@H](O)[C@@H](O[C@H]2C(C(=O)OC)=C[C@@H](O)[C@@H](O)[C@H]2O)[C@@H]1Cl [(−)-22] | > 10 | > 10 | – | –
COC(=O)C1=C[C@@H](O)[C@@H](O)[C@@H](O[C@H]2C(C(=O)OC)=C[C@@H](O)[C@@H](O)[C@@H]2O)[C@@H]1Cl [(−)-23] | > 10 | > 10 | – | –
COC(=O)C1=C[C@@H](O)[C@@H](O)[C@@H](O[C@@H]2C(C(=O)OC)=C[C@H](O)[C@H](O)[C@@H]2O)[C@@H]1Cl [(−)-pericosine E (6), (3R,4R,5R,6R)-methyl 6-chloro-3,4-dihydroxy-5-{[(1R,4S,5S,6S)-4,5,6-trihydroxy-2-(methoxycarbonyl)cyclohex-2-en-1-yl]oxy}cyclohex-1-enecarboxylate] | > 10 | > 10 | one-third | –
C=C[C@@H]1C[C@H](C)C[C@H](C)[C@H]1c1c(O)ccn(O[C@@H]2C(C(=O)OC)=C[C@@H](O)[C@@H](O)[C@H]2O)c1=O [maximiscin] | – | – | – | potent inhibition
